The record followed here is ChEMBL document CHEMBL3751759, “TRPA1 channels as targets for resveratrol and related stilbenoids” (Bioorg Med Chem Lett, 2016).

Assay [1] has as its target T1, Transient receptor potential cation channel subfamily A member 1 (Rattus norvegicus, UniProt Q6RI86). Put plainly: Antagonist activity at rat TRPA1 expressed in HEK293 cells assessed as inhibition of allyl isothiocyanate-induced increase of intracellular calcium level. It is filed as cell-based.
Assay [2] addresses T2, Transient receptor potential cation channel subfamily V member 1 (Homo sapiens, UniProt Q8NER1). Nature of the assay: Antagonist activity at human TRPV1 expressed in HEK293 cells assessed as inhibition of […]-induced increase of intracellular calcium level. It counts as cell-based.
For assay [3], the target named is Transient receptor potential cation channel subfamily A member 1 (Rattus norvegicus) (UniProt Q6RI86). Put plainly: Agonist activity at rat TRPA1 expressed in HEK293 cells assessed as induction of intracellular calcium level relative to allyl isothiocyanate. It counts as cell-based.
In assay [4] the target is T1, Transient receptor potential cation channel subfamily A member 1. Put plainly: Agonist activity at rat TRPA1 expressed in HEK293 cells assessed as induction of intracellular calcium level. It counts as cell-based.
The target of assay [5] is T2, Transient receptor potential cation channel subfamily V member 1. Put plainly: Agonist activity at human TRPV1 expressed in HEK293 cells assessed as induction of intracellular calcium level relative to […]. It counts as cell-based.
Assay [6] deals with Transient receptor potential cation channel subfamily A member 1 (Homo sapiens, UniProt O75762). Nature of the assay: Antagonist activity at human TRPA1 expressed in HEK293 cells assessed as inhibition of allyl isothiocyanate-induced increase of intracellular calcium level. It is filed as cell-based.
Assay [7] has as its target T1, Transient receptor potential cation channel subfamily A member 1. Nature of the assay: Agonist activity at rat TRPA1 expressed in HEK293 cells assessed as induction of intracellular calcium level in presence of AITC. It counts as cell-based.
For assay [8] the target is unchanged. Nature of the assay: Antagonist activity at rat TRPA1 expressed in HEK293 cells assessed as inhibition of AITC-induced increase of intracellular calcium level. It counts as cell-based.
Assay [9] concerns the target T2, Transient receptor potential cation channel subfamily V member 1. Nature of the assay: Antagonist activity at human TRPV1 expressed in HEK293 cells assessed as inhibition of capsaicin-induced increase of intracellular calcium level. It is filed as cell-based.
The target is the same in assay [10]. Nature of the assay: Antagonist activity at human TRPV1 expressed in HEK293 cells. It is filed as cell-based.
The target is the same in assay [11]. Nature of the assay: Antagonist activity at TRPV1 (unknown origin) in DRG neurons.

T1 sequence (Q6RI86 whole entry): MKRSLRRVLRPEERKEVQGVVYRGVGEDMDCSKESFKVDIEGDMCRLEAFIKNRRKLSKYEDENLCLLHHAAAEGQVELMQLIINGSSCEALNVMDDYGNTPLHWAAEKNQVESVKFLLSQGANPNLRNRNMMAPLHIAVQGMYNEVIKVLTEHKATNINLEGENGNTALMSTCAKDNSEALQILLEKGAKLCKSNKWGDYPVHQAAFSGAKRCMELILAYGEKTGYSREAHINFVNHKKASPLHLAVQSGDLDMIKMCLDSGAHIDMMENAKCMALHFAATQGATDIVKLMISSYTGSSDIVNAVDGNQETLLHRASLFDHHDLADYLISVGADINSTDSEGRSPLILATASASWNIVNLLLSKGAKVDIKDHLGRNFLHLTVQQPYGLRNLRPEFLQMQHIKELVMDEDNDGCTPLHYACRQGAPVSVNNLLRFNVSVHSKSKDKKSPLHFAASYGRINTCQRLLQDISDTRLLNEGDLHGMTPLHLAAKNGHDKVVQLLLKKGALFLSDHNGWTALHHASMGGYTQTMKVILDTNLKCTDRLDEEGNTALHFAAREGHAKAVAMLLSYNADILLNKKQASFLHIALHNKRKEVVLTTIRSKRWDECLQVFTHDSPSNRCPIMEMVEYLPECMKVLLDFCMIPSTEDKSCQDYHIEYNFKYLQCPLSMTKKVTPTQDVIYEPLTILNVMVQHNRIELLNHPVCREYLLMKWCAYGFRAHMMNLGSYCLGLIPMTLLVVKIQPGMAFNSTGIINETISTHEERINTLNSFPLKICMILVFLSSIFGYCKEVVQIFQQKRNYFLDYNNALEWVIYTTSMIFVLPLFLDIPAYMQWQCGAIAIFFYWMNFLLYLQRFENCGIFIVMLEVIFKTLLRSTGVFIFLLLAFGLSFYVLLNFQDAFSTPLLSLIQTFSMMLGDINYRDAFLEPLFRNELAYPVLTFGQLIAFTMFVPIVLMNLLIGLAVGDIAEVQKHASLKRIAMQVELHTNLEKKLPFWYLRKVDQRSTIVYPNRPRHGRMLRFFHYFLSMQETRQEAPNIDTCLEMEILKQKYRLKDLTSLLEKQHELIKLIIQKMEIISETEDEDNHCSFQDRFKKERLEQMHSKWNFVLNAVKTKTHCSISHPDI
Chain of Transient receptor potential cation channel subfamily A member 1 (Rattus norvegicus) (Q6RI86 whole entry): as above
T2 sequence (Q8NER1 whole entry): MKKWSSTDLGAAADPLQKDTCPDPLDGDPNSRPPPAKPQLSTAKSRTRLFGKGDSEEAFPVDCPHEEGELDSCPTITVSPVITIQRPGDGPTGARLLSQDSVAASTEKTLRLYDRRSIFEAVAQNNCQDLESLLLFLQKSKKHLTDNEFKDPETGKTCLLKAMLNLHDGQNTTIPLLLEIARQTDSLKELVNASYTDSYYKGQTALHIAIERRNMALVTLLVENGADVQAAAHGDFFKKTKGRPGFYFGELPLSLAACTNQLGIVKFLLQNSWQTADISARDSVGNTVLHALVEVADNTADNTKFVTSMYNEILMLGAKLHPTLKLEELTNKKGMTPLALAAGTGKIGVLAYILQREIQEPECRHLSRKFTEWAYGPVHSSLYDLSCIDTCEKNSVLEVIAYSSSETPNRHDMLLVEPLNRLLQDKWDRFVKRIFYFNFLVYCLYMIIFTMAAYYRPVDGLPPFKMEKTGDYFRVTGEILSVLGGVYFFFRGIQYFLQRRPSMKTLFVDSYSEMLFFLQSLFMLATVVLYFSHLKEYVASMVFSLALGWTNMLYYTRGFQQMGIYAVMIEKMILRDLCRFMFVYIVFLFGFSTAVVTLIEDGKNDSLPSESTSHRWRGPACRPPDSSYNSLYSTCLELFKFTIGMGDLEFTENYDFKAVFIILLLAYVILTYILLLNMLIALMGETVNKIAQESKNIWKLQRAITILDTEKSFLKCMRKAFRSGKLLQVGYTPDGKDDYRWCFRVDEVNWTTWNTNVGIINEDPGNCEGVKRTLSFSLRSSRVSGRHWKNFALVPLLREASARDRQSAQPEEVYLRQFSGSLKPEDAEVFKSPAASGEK
Chain of Transient receptor potential cation channel subfamily A member 1 (Homo sapiens, UniProt O75762) (O75762 whole entry): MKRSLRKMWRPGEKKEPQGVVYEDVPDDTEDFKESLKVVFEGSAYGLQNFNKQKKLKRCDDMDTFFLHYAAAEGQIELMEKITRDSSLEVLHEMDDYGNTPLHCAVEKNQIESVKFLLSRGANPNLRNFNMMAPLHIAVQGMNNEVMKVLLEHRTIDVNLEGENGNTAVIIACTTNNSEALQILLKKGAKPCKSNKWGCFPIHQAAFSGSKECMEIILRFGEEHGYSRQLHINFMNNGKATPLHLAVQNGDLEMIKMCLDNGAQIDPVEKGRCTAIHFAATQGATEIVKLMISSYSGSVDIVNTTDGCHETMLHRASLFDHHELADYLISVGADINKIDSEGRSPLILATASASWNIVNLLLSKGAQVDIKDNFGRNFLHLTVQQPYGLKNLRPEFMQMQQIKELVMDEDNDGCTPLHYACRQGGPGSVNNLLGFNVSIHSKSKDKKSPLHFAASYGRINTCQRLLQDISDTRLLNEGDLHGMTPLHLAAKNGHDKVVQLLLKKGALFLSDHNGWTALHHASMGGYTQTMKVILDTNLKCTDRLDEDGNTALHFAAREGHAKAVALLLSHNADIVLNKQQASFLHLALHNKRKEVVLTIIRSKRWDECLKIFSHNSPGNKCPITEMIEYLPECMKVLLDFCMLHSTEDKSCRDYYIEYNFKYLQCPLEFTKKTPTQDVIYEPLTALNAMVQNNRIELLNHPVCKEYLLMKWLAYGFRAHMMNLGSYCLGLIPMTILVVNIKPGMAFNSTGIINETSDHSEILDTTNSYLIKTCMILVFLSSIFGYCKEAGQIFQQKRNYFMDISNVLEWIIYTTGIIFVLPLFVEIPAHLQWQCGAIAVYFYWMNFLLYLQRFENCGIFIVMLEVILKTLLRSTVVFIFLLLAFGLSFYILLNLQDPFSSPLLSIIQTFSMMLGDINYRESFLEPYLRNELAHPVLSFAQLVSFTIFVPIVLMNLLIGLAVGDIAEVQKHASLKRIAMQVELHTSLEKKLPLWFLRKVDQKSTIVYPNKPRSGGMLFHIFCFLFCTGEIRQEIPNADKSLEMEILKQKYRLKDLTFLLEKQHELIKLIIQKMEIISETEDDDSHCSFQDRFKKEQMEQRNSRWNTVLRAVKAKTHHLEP

Take `COc1cccc(/C=C/c2ccccc2)c1`: the IC50 is 2.3 µM in assay [1] and above 10 µM in [2]. In addition, the Efficacy in [3] is 101%; in assay [5], below 10%. The EC50 in [4] was 1.7 µM.
As to `COc1ccc(/C=C/c2cccc(OC)c2)cc1`, the IC50 was 2.9 µM in assay [1] and above 10 µM in assay [2]. The results for the Efficacy in assay [3] and in [5] were 75% and below 10%, respectively. The EC50 in assay [4] was found to be 1.5 µM.
Take `COc1ccc(/C=C/c2ccccc2)cc1`: the IC50 in assay [1] was 17.8 µM; in [2], above 10 µM; in assay [6], 12.1 µM. Further, the results for the Efficacy in assay [3] and in assay [5] were 49% and below 10%, respectively. Further, in [4], the EC50 turned out to be 2.4 µM.
`Oc1ccc(/C=C/c2ccccc2)cc1` [(E)-4-STYRYLPHENOL]: the IC50 in assay [1] is 5.5 µM; in assay [2], above 10 µM. For the same compound, the Efficacy in assay [3] is 61.9%; in assay [5], below 10%. Further, in [4], the EC50 is 8.4 µM.
For `Oc1ccc(/C=C/c2cccc(O)c2)cc1` [(E)-3,4'-STILBENDIOL], the results for the IC50 in [1] and in assay [2] were 16.5 µM and above 10 µM, respectively. Also, the Efficacy is 73.4% in [3] and below 10% in [5]. In addition, the EC50 in [4] came to 13.5 µM.
Consider `Oc1ccccc1/C=C/c1ccccc1`, for which the IC50 in assay [1] was 2.2 µM; in [2], above 10 µM. Besides, the Efficacy in [3] is 88.4%; in assay [5], below 10%. In addition, in assay [4], the EC50 came out at 0.58 µM.
Turning to `Oc1ccc(/C=C/c2cc(O)cc(O)c2)cc1` [RESVERATROL], the IC50 in [7] is 2.74 µM; in [1], 19.9 µM; in [8], 0.75 µM. Also, the Efficacy in assay [3] was below 10%.
Regarding `COc1ccc(/C=C/c2cc(OC)cc(OC)c2)cc1` [TRISMETHOXYRESVERATROL], the IC50 is 3 µM in assay [1] and above 10 µM in [2]. For the same compound, the Efficacy in [3] was 72.5%; in [5] it was below 10%. The EC50 in assay [4] turned out to be 1.7 µM.
On to `CC(=O)Oc1ccc(/C=C/c2cc(OC(C)=O)cc(OC(C)=O)c2)cc1` [TRIACETYLRESVERATROL], for which the values for the IC50 in assay [1] and in [2] were 11.8 µM and above 10 µM, respectively. Besides, the results for the Efficacy in assay [3] and in assay [5] were 127% and below 10%, respectively. The EC50 in assay [4] was determined as 7.5 µM.
With `COc1cc(O)cc(/C=C/c2ccccc2)c1` [PINOSYLVIN METHYL ETHER], the IC50 in assay [1] is 6.9 µM; in [2], above 10 µM; in [9], 23.7 µM; in assay [10], 15 µM; in [11] it was 30 µM. For the same compound, the Efficacy in assay [3] is 71.4%; in assay [5], below 10%. In assay [4], the EC50 was found to be 3.5 µM.
With `COc1cccc(/C=C/c2ccc(O)cc2)c1` [(E)-5-METHOXY-4'-STILBENOL], the IC50 in assay [1] was 10.1 µM; in assay [2] it was above 10 µM. The Efficacy in assay [3] was 41.8%; in assay [5], below 10%. In assay [4], the EC50 amounted to 6.6 µM.
For `CC(=O)Oc1ccc(/C=C/c2ccccc2)cc1`, the IC50 is 29.4 µM in assay [1] and above 10 µM in assay [2]. Also, the values for the Efficacy in assay [3] and in assay [5] were 89.7% and below 10%, respectively. The EC50 in assay [4] was found to be 16.3 µM.
As for `COc1ccccc1/C=C/c1ccccc1`, the IC50 in assay [1] is 1.7 µM; in assay [2] it was above 10 µM. Besides, the values for the Efficacy in [3] and in [5] were 83.4% and below 10%, respectively. Moreover, in assay [4], the EC50 was found to be 0.88 µM.
In the case of `COc1cc(/C=C/c2ccccc2)cc(OC)c1` [3,5-O-DIMETHYLPINOSYLVIN], the 50% inhibitory concentration (IC50) in assay [1] was 3.4 µM; in [2], above 10 µM. In addition, the Efficacy in assay [3] was 84.1%; in [5] it was below 10%. For the same compound, in assay [4], the EC50 worked out at 1.7 µM.
Regarding `Oc1cccc(/C=C/c2ccccc2)c1` [(E)-3-STILBENOL], the IC50 in assay [1] was 3.4 µM; in [2], above 10 µM. The Efficacy was 77.4% in assay [3] and below 10% in assay [5]. The EC50 in assay [4] was found to be 1.8 µM.
Regarding `Oc1cc(O)cc(/C=C/c2ccccc2)c1` [PINOSYLVIN], the results for the IC50 in [1] and in assay [2] were 12.1 µM and above 10 µM, respectively. Further, the Efficacy in [3] and in [5] was below 10% in each case.
Regarding `CC(=O)Oc1ccccc1/C=C/c1ccccc1`, the values for the IC50 in assay [1] and in assay [2] were 8.6 µM and above 10 µM, respectively. Further, the values for the Efficacy in [3] and in assay [5] were 135% and below 10%, respectively. Besides, in [4], the concentration giving a half-maximal response (EC50) worked out at 7.2 µM.
Regarding `Oc1ccc(/C=C/c2ccc(O)cc2)cc1` [TRANS-4,4'-DIHYDROXYSTILBENE], the results for the IC50 in assay [1] and in assay [2] were 25.2 µM and above 10 µM, respectively. Further, the Efficacy in assay [3] was 40%; in assay [5] it was below 10%. Besides, the EC50 in [4] was found to be 11 µM.
With `COc1ccc(/C=C/c2ccc(OC)cc2)cc1`, the IC50 in assay [1] is 10.6 µM; in assay [2] it was above 10 µM. Further, the Efficacy was 86.7% in [3] and below 10% in assay [5]. Besides, the half-maximal effective concentration (EC50) in assay [4] was 4.2 µM.
As for `COc1cc(/C=C/c2ccc(O)cc2)cc(OC)c1` [PTEROSTILBENE], the IC50 was 7.5 µM in [1] and above 10 µM in assay [2]. In addition, the results for the Efficacy in assay [3] and in assay [5] were 71.1% and below 10%, respectively. Further, in assay [4], the EC50 is 3.6 µM.
The matching figures for `COc1ccc(/C=C/c2ccc(O)cc2)cc1`: 10 µM, above 10 µM, 72.1%, below 10% and 10.1 µM.
